Legend:
[1] = tested on: C170HM2 human colorectal tumor cells; assay: C170HM2 colon cancer metastasis to the liver model; assay type: in vivo, MF1 nude (nu/nu) athymic mice; details: 25 mg/kg i.v. cycled on days 1, 3, 5, 7; liver tumors day 35
Description: Liver metastasis was initiated by intraperitoneal injection of C170HM2 human colorectal tumor cells into male MF1 nude (nu/nu) athymic mice. 5FU/leucovorin was used as a positive control.
C170HM2 cells were maintained in vitro in RPMI culture medium (Sigma) containing 10% (v/v) heat inactivated fetal bovine serum and 2 mM L-glutamine at 37° C. in 5% CO2 and humidified conditions. Cells from sub-confluent monolayers were harvested with 0.025% EDTA, washed in culture medium and re-suspended in sterile phosphate buffered saline, pH 7.4 (PBS) for in vivo administration. 1.5×10^6 cells in a volume of 1 ml were injected intraperitoneally into 65 mice, and the mice were allocated into treatment groups as below.
Treatment was initiated on day 1 following cell injection and continued until day 35 or until the clinical condition of the animal required termination. Groups 5 and 6 missed one dose on day 5. No adverse affects of the test compounds in mice bearing the tumors were observed.
The study was terminated on day 35, and the tumors in the liver were excised and weighed. The numbers of lung nodules are also counted.

4T1 cells [2] = assay: 4T1 breast cancer metastasis to the lung model, daily treatment; assay type: in vivo, BALB/c mice; details: Cisplatin weekly from day 5
Description: Female BALB/c mice 8 weeks of age (WOA) were injected with 8×10^4 4T1 cell intra mammary fat pad. Daily treatment with saline or MONC402 with or without weekly treatment of cisplatin started on day 5. Primary tumors were removed on day 9 and weighed.

4T1 cells [3] = assay: Second 4T1 experiment, osmotic pump delivery; assay type: in vivo, BALB/c mice; details: MONC402 20 mg/kg/day osmotic pump; Cisplatin 1.25 mg/kg weekly; day 32
Description: FIG. 2 is a bar graph showing the effect of a polysaccharide preparation described herein in a 4T1 therapeutic model of breast cancer metastasis to the lung. Lung tumor burden (lung weight-normal lung weight) was determined on day 32 for female BALB/c mice (8 weeks old) challenged with intra-mammary fat pad injection of 8×10^4 4T1 cells and treated as indicated starting on day 4. In a second 4T1 experiment, female BALB/c mice 8 WOA were injected with 8×10^4 4T1 cells intra mammary fat pad. Continuous osmotic pump delivery of saline or MONC 402 with weekly treatment of saline or Cisplatin started on day 4. Primary tumors were removed on day 9. […] The experiment terminated on day 32 and different samples were taken. 6 mice were either found dead or were terminated early due to worsened overall condition. 4T1 lung metastases were determined by lung weight, lung tumor nodule quantification including nodule number, size and calculated tumor volume, as well as histological quantification.

[4] = tested on: endothelial progenitor cells (EPC); assay: EPC mobilization in normal mice, single MONC402 dose; assay type: in vivo; details: G-CSF 200 μg/kg 3 days; docetaxel i.p. 40 mg/kg; cisplatin i.p. 6 mg/kg; 24 h
Description: In one experiment, normal mice were treated with G-CSF (s.c., 3 consecutive days), docetaxel or cisplatin (one i.p. dose) with or without simultaneous MONC402 treatment (one s.c. dose). EPC mobilization was monitored 24 h later. Mice (8 mice/group) were dosed s.c. with Saline or MONC402 (40 mg/kg) (or DC101 at 40 mg/kg for control with docetaxel). About 30 min later, mice were given docetaxel (i.p., 40 mg/kg), cisplatin (i.p., 6 mg/kg), or saline control. As a positive control, 2 groups of mice were also dosed with G-CSF […]. (200 μg/kg) for 3 days, either alone or in combination with a single dose of MONC402 (s.c. at 40 mg/kg) on the last day. 24 h later, the mice were euthanized, and 0.5-0.8 mL of blood taken by cardiac puncture:
About 300 μL of whole blood was transferred directly into 14 mL of lysis buffer for flow cytometry of EPC. The remaining 300-600 μL were processed for serum (SDF-1α). For flow cytometry, lysed cells were washed and blocked, then stained with CD13-FITC, CD117-PE, 7-AAD, VEGFR2-APC, and CD45-PE/Cy7. A total of 50,000 cells were acquired per sample in the PBMNC gate.

[5] = tested on: endothelial progenitor cells (EPC); assay: EPC mobilization in mice, second experiment (daily MONC402 with G-CSF); assay type: in vivo; details: G-CSF 200 μg/kg s.c. 5 consecutive days; docetaxel i.p. 40 mg/kg
Description: In a second experiment, it was tested if daily dosing for 5 days with MONC402 would generate a stronger inhibitory effect on EPC mobilization caused by treatment with a taxane.
Mice (10 mice/group) were dosed s.c. with Saline or MONC402 (40 mg/kg), or DC101 (40 mg/kg, as a positive inhibition control with docetaxel). About 30 min later, mice were given docetaxel (i.p., 40 mg/kg) or saline control. As a positive control, 2 groups of mice were also dosed with G-CSF (200 μg/kg) s.c. for 5 consecutive days±daily MONC402. 24 h later, the mice were euthanized, and 500-800 μL of blood taken by cardiac puncture. 150 μL were transferred into 5 mL of lysis buffer for flow cytometric analysis of EPC. The remaining 350-500 μL were processed for serum (SDF-1α). For flow cytometry, cells were washed and blocked and then stained with CD13-FITC, CD117-PE, 7-AAD, VEGFR2-APC, and CD45-PE/Cy7. A total of 50,000 cells were acquired per sample in the PBMNC gate.

[6] = tested on: endothelial progenitor cells (EPC); assay: Docetaxel induced EPC mobilization in 4T1 tumor bearing mice, MONC402 via osmotic pump; assay type: in vivo; details: Docetaxel 40 mg/kg i.p. Day 6; MONC402 osmotic pump 40 mg/kg/day monotherapy
Description: A third experiment was conducted to evaluate the effect of MONC402 on EPC mobilization in response to treatment with docetaxel in 4T1 tumor bearing mice.
4T1 tumors were implanted on Day 0 at 1×10^5 cells/mouse into the 4th mammary fat pad. Pumps with Saline or MONC402 were implanted on Day 0, immediately after tumor cell injections. Mice were randomized to the following groups: • 1. Saline Control, n=8 • 2. Docetaxel, 40 mg/kg, Day 6, n=8 • 3. M402, pump, 40 mg/kg/day, Day 0, n=8 • 4. Docetaxel, 40 mg/kg, Day 6+M402, pump, 40 mg/kg/day, Day 0, n=8
Docetaxel or Saline was administered i.p. on Day 6 in the AM. Four h later, mice were bled by submandibular plexus for EPC profiling and soluble factor analysis. Primary tumors were removed on Day 9 for histological analyses. Blood was also collected for soluble factor analyses (72 h after docetaxel dosing). Serum samples were analyzed using a 19-plex Luminex kit. In addition, samples were also tested for SDF-1α levels by ELISA.

5FU/leucovorin was tested, and the “Mean tumor area (% of vehicle)” value [1] was 15.7 % of vehicle, the “Mean tumor area (mm^2)” value [1] was 13.12 mm^2 and the “Mean tumor weight” value [1] was 0.037 g. For the same molecule, the “Mean tumor weight (% of vehicle)” value [1] was 11.94 % of vehicle.

`N.N.[Cl][Pt][Cl]` [Cisplatin, cisplatin] was tested, and the “Average lung tumor size” value (4T1 cells [2]) was 1.41, the Average tumor size (4T1 cells [2]) was 1.36 and the “Lung tumor nodule #/animal” value (4T1 cells [2]) was 5.6 ± 4.4. The Total tumor nodule (4T1 cells [2]) was 89, the Total tumor volume (4T1 cells [2]) was 134.13 and the 4T1 lung metastasis (4T1 cells [3]) was “significant anti-tumor efficacy”. For the same molecule, the “EPC mobilization compared to Saline control” value [4] was “did not show this effect”.

For `CC(=O)O[C@@]12CO[C@@H]1C[C@H](O)[C@@]1(C)C(=O)[C@H](O)C3=C(C)[C@@H](OC(=O)[C@H](O)[C@@H](NC(=O)OC(C)(C)C)c4ccccc4)C[C@@](O)([C@@H](OC(=O)c4ccccc4)[C@H]21)C3(C)C` [Docetaxel, docetaxel], the “EPC mobilization compared to Saline control” value [4] was “significant increase”, the EPC mobilization [5] was “significant increase” and the “EPC in the blood at 4 h” value [6] was “significant increase”.

B1: granulocyte colony stimulating factor (protein, UniProt P09919 31-207, looked up)
Granulocyte …: TPLGPASSLPQSFLLKCLEQVRKIQGDGAALQEKLVSECATYKLCHPEELVLLGHSLGIPWAPLSSCPSQALQLAGCLSQLHSGLFLYQGLLQALEGISPELGPTLDTLQLDVADFATTIWQQMEELGMAPALQPTQGAMPAFASAFQRRAGGVLVASHLQSFLEVSYRVLRHLAQP
notes: growth factor used as positive control for EPC and MDSC mobilization
B1 was tested, and the “EPC mobilization compared to Saline control” value [4] was “significant increase” and the EPC mobilization [5] was “significant increase”.
